# Measurements reported in paper PMC2603313, “Direct Inhibition of GSK3β by the Phosphorylated Cytoplasmic Domain of LRP6 in Wnt/β-Catenin Signaling” (PLoS ONE, 2008).
# Square brackets hold non-standard residues; d marks the D form. Ends that are not written are not given here. pT = C[C@@H](OP(=O)(O)O)[C@H](N)C(=O)O; pS = N[C@@H](COP(=O)(O)O)C(=O)O
# B1: GST-fused LRP6 miniCL (residues 1470–1510 of human LRP6), not phosphorylated (domain or fragment, UniProt O75581 1470-1510, looked up)
# chain: SSSSSSTKGTYFPAILNPPPSPATERSHYTMEFGYSSNSPS
# modifications: also: GST fusion (GST left off)
# notes: LRP6, human, intracellular fragment miniCL, residues 1470-1510 (Ser/Thr rich cluster and first PPPSPxS motif); also called GST-miniCL; LRP6 miniCL region; source: E. coli, purified (Glutathione-agarose, HiTrapQ)
# B2: dually-phosphorylated LRP6 PPPSPxS peptide (NPPPpSPApTERSH) (peptide)
# peptide: {biotin (sulfo-NHS-SS-biotin)}-NPPP[pS]PA[pT]ERSH-NH2
# notes: LRP6, first PPPSPxS motif; The biotin is joined by a disulfide that can be cut by reduction; the kinase buffer holds 10 mM 2-mercaptoethanol; also called PPP(p)SPx(p)S; dually-phosphorylated peptide; source: synthetic peptide (solid-phase synthesis)
# What was measured:
# [1] = system: GSK3β and CK1; experiment: Phosphorylation of GST-fusion proteins by GSK3β and CK1; format: biochemical; conditions: data not shown
# [2] = target: catalytic domain of mouse GSK3β (residues 27–393) (mouse) (UniProt Q9WV60)
# [3] = target: GSK3β catalytic domain, 27-393 (UniProt Q9WV60); experiment: inhibition of GSK3β kinase activity, band shift; conditions: reference: non-phosphorylated peptide …; sites S1490
# [4] = target: T1, GSK3β (Mus musculus, UniProt Q9WV60); experiment: In vitro GSK3β activity assay with synthetic peptides (phosphorylation of primed β-catenin N-terminal fragment); format: biochemical; conditions: primed β-catenin N-terminal fragment 7 µM, 1 mM ATP, pH 8.0, 30 min at 37°C, 4–7 independent experiments
# T1 construct: The catalytic domains of mouse GSK3β (residues 27–393) and CK1ε (residues 1–319) were expressed and purified; made in house
# Source text: We synthesized one dually-phosphorylated (NPPPpSPApTERSH, where pS or pT designates a phosphorylated Ser or Thr residue), two singly-phosphorylated (NPPPSPApTERSH and NPPPp[…]) and one non-phosphorylated ([…]) peptides derived from the first PPPSPxS motif of LRP6 (Fig. 1A). To measure the GSK3β activity toward β-catenin in vitro, we utilized a β-catenin N-terminal fragment (residues 1–133), whose Ser45 was prephosphorylated by CK1, as a substrate (Ha et al., 2004). Each synthetic peptide was added to a reaction mixture containing the purified GSK3β enzyme and the substrate β-catenin N-terminal fragment. The GSK3β activity was determined through measurement of the intensity of the supershifted (retarded) β-catenin bands (Fig. S3), which represent the phosphorylated product species (Fig. S4), on an SDS-polyacrylamide gel (Figs. S3, S4, S5, S6, S7). […] This corresponds well with the results of Zeng et al., who reported that the first Ser residue in the PPPSPxS motif has a more important role in Wnt/β-catenin signaling than the second Ser residue.
# The catalytic domains of mouse GSK3β (residues 27–393) and CK1ε (residues 1–319) were expressed and purified as previously described. The N-terminal region (residues 1–133) of β-catenin was expressed in Escherichia coli as a GST-fusion protein with a TEV protease cleavage site and then purified using Glutathione-agarose. Subsequently, the GST tag was cleaved using recombinant TEV protease and was removed by repeated HiTrapQ anion-exchange chromatography. The N-terminal region of β-catenin was then phosphorylated by incubation with the catalytic domain of CK1ε (0.28 mg/ml) at 37°C for 20 min in 50 mM Tris buffer (pH 8.0) containing 10 mM MgCl2, 10 mM 2-mercaptoethanol, and 2 mM phenylmethylsulfonylfluoride. The phosphorylated β-catenin fragment was then further purified using HiTrapQ anion-exchange chromatography to remove the CK1ε enzyme. […]
# [5] = system: Xenopus embryos; experiment: Microinjection into Xenopus embryos, second body axis formation; format: in vivo, Xenopus laevis; conditions: peptide 1 ng co-injected with XWnt8 0.5 pg
# Source text: It is well established that Wnt signaling reduces GSK3β activity during development of the Xenopus embryo [24], and that the suppressed activity of GSK3β induces a second body axis in the Xenopus embryo in the response to Wnt. To examine the in vivo effect of the PPPSPxS motif on Wnt/β-catenin signaling, we injected the synthetic peptides into Xenopus embryos, along with a small amount of Xenopus Wnt8 that is insufficient to induce second body axis formation on its own. […] It is likely that a slight reduction in the GSK3β activity due to the activity of the exogenous Wnt on the endogenous LRP6/5 is required for the peptide to cause a sufficient inhibition of GSK3β to trigger Wnt/β-catenin signaling. Moreover, even if the amount of peptide injected is well above physiological concentrations, the effect is specific to the phosphorylated peptide.
# Figure 3 The effect of the injected PPPSPxS peptides to the Xenopus embryos. Xenopus Wnt8 protein (XWnt8; 0.5 pg) was co-microinjected with each peptide (1 ng) into the ventrovegetal region of Xenopus embryos. […]
# Xenopus laevis was purchased from Xenopus I and Nasco. […] In vitro fertilization was performed as described previously, and the developmental stages of the embryos were determined according to Nieuwkoop and Faber. […]
# [6] = system: GSK3β; conditions: toward full-length β-catenin; cited from earlier work
# Protocol: We next sought to determine if the phosphorylated LRP6 motifs are capable of inhibiting GSK3β in the Axin complex. An in vitro kinase assay with Axin-bound GSK3β was performed by adding the purified GSK3β binding domain (GBD) of Axin to the reaction mixture.
# [7] = target: T2, catalytic domain of mouse GSK3β (residues 27–393) (mouse, UniProt Q9WV60 27-393); experiment: far-Western, overlay or dot blot; 15 µg GST-miniCL on PVDF; membrane incubated with GSK3β (2 µg/ml) and/or His-Axin (12 µg/ml) in TBST containing 1% skim milk; conditions: both partners purified
# T2 construct: GSK3β (glycogen synthase kinase 3 beta), mouse, catalytic domain, residues 27-393; also called recombinant GSK3β catalytic domain; source: recombinant, expressed and purified as previously described [32]
# [8] = target: T2, catalytic domain of mouse GSK3β …; experiment: steady-state kinetics of enzyme inhibition (GSK3β kinase assay, band shift on SDS-PAGE); apparent Ki; 50 mM Tris pH 8.0, 10 mM MgCl2, 10 mM 2-mercaptoethanol, 1 mM ATP, 8 ng GSK3β catalytic domain, 6 µM primed β-catenin N-terminal fragment (1-133), 37°C; peptide 0, 1, 3, 10, 30 µM; (V0/Vi)−1 = [peptide]/Ki; conditions: both partners purified
molecule,measurement,setting,value
"GST-PPPAPxS: GST-fused LRP6 PPPAPxS, residues 1485–1497 with the substitution at Ser1490 (LNPPPAPATERSH; also: GST-fused, end not given here)",Phosphorylation by GSK3β and CK1,[1],not phosphorylated
"GST-PPPSPxS: GST-fused LRP6 PPPSPxS, residues 1485–1497 (LNPPPSPATERSH; also: GST-fused, end not given here)",Phosphorylation by GSK3β and CK1,[1],not phosphorylated
"GST-fused mouse Axin GBD (GSK3β binding domain, residues 512–530) (domain or fragment)",inhibition of in vitro GSK3β activity at above 2.5 µM of GST-Axin GBD,[2],20%
LRP6 (from UniProt O75581) pS1490 peptide NPPPpSPATERSH,binding against the reference,[3],gained
"NPPPSPATERSH [PPPSPxS, non-phosphorylated peptide derived from the first PPPSPxS motif of LRP6]",Inhibitory effect on GSK3β activity toward β-catenin,[4]; at concentrations up to 100 µM,did not show any inhibitory effect on the GSK3β activity
same,Induction of second body axis,[5],did not
"NPPPpSPATERSH [PPP(p)SPxS, singly-phosphorylated peptide (first Ser/Thr) derived from the first PPPSPxS motif of LRP6]",Inhibitory effect on GSK3β activity toward β-catenin,[4]; at 100 µM,strong inhibitory effect close to that of the dually-phosphorylated peptide
same,Induction of second body axis,[5],induced the second body axis with an efficiency comparable to that of the dually-phosphorylated peptide
full-length Axin: full-length Axin scaffold protein,Effect on GSK3β activity,[6],increases GSK3β activity
B1,binding result,[7],binds
B2,Ki,[8],13 µM
